Test results: patent US7579356B2, “Thia-tetraazaacenaphthylene kinase inhibitors” (Janssen Pharmaceutica NV, priority 2005, dated 2009)
“And” between values parts separate entries of the source, which are not always exact repeats. Equal entries are not always repeated.

Experiments:
EGFR = target: T1, EGFR (Homo sapiens, UniProt P00533); experiment: EGFR Kinase Assay; format: biochemical; conditions: GST-EGFR, ATP 5 μM
T1 construct: The intracellular portion of EGFR started at nucleotide 2189 (corresponding to amino acid 667) and ended at the termination codon; made in house; host or cells: Sf9 insect cells (baculovirus)
Summary of the method: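 Potency came from triplicate 16-point half-log titrations starting at 200 uM, with IC50 fitted from % inhibition against log concentration, or % inhibition at 2 μM otherwise. Reaction: Sf9-made GST–EGFR cytoplasmic region (aa 667 onward), biotin-polyGluTyr, 5 μM ATP with 33P tracer, pH 8.0 Tris/Mg/vanadate/DTT, 30 °C for 1 h; captured on streptavidin Flashplates and counted.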

HER-2 = target: T2, HER-2 (Homo sapiens, UniProt P04626); experiment: HER-2 Kinase Assay; format: biochemical; conditions: for inhibition at 1 µM: test concentration of 1 μM; for IC50: value in parentheses
T2 construct: His6 with thrombin site (N); purchased Proqinase (Freiburg, Germany)
Summary of the method: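 Read-out was scintillation counting of 33P incorporated into biotinylated polyGluTyr captured on streptavidin plates. Reactions ran 1 h at 30 °C with GST-fused HER-2 residues 679–1255, 1 μM ATP, Mn2+ and Mg2+ at pH 7.5; data given as percent inhibition at 1 μM, with IC50 where determined.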

BT474 breast carcinoma = experiment: Cell Proliferation Inhibition Assay, BT474 (14C-thymidine); format: cell-based; conditions: Homo sapiens, BT-474, C14 method
Excerpt: (§1) Cell Proliferation Inhibition Assay
(§2) The ability of a test compound to inhibit unregulated cell proliferation may be determined by measuring incorporation of ^14C-labelled thymidine into newly synthesized DNA within cell lines derived from carcinomas originating from several tissues. Accordingly, the effect of a test compound on proliferation of cells with a variety of phenotypes may be determined.
(§3) Carcinoma cell lines used include the HeLa cervical adenocarcinoma from the American Type Culture Collection (ATCC Cat. #CCL2), A375 malignant melanoma (ATCC Cat. #CRL-1619), HCT-116 colon carcinoma (ATCC Cat. #CCL-247), SKBR3 breast carcinoma (ATCC Cat. #HTB-30) and BT474 breast carcinoma (ATCC Cat. #HTB-20).
(§4) The carcinoma cells were trypsinized and counted. The cells (3000-8000 count) were added to each well of a 96-well CytoStar tissue culture treated scintillating microplate (Amersham #RPNQ0160) in complete medium (100 μL) and the plate was then incubated in complete medium for 24 hrs at 37° C. in an inert atmosphere containing 5% CO2.
(§5) Test compound (1 μL) in 100% DMSO was added to the plate test-wells with DMSO only added to control-wells. The plate was incubated in complete medium for a second 24 hr period at 37° C. in an atmosphere containing 5% CO2.
(§6) An aliquot of a solution of Methyl ^14C-thymidine (56 mC/mmol) (NEN #NEC568 or AMersham #CFA532) and complete medium (20 uL to provide 0.2 μCl/well) was then added to each well and the plate was incubated for a third 24 hr period at 37° C. in an atmosphere containing 5% CO2.
(§7) The plate contents were then discarded, the plate washed twice with PBS (200 μL) and then PBS (200 μL) was added to each well. The plate was sealed and the degree of methyl ^14C-thymidine incorporation was quantified on a Packard Top Count.
(§8) Cell proliferation of the Hela cell line was measured using the ATP-Lite method as described in the ATP Lite Kit (Perkin-Elmer Kit Number 6106941) or the C^14 method as described above. Cell proliferation of the other cell lines was measured using the C^14 method.

[1] = tested on: HeLa cervical adenocarcinoma; experiment: Cell Proliferation Inhibition Assay, Hela (ATP Lite); format: cell-based; conditions: Homo sapiens, ATP-Lite method
Excerpt: as §1, §2, §3, §4, §5, §8

SKBR3 breast carcinoma = experiment: Cell Proliferation Inhibition Assay, SKBR3 (14C-thymidine); format: cell-based; conditions: Homo sapiens, SK-BR-3, C14 method
Excerpt: as §1, §2, §3, §4, §5, §6, §7, §8

HER-4 = target: T3, HER-4 (Homo sapiens, UniProt Q15303); experiment: HER-4 Kinase Assay; format: biochemical
T3 construct: His6 with thrombin site (N); purchased Proqinase (Freiburg, Germany)
Description: The HER-4 kinase used was purified at Proqinase (Freiburg, Germany) from a construct that consisted of a fusion of GST (Glutathione-S-Transferase), HIS6-Thrombin and the nucleotides encoding amino acids 676 to 1307 of HER-4 (Accession NM 005235).
A mixture of a 10× kinase reaction buffer (600 mM Hepes at pH 7.5, 30 mM Magnesium Chloride, 0.03 mM Sodium Vanadate and 500 μg/mL PEG 20,000), DTT (1.2 mM final from a 10 mM) stock), ATP (1 μM from a 10 mM stock), biotinylated polyGluTyr (1.5 ng/μL final from stock of 1 μg/μL) prepared by Upstate Biotechnologies, Lake Placid, N.Y.), Manganese Chloride (3 mM final from a 1 M stock), γ-^33P-ATP (10 μCl/mL stock) and water (70 μL/well) was added to each well of a Streptavidin Flashplate (Cat. # SMP103, NEN, Boston, Mass.).
Test compound stock (1 μL) was added to the appropriate wells. Diluted GST HER-4 kinase (6.7 ng/μL diluted into 50 mM Tris-HCl at pH 8.0 and 0.1% bovine serum albumin) (30 μL) was added (total volume of 200 ng/well) to initiate the reactions.
The reaction plates were incubated at 30° C. for 1 hr. The reaction was terminated by aspirating the reaction mixture from the plate wells and washing the wells three times with a 1×PBS stop buffer (300 μL) and 100 mM EDTA. After the final wash, the same stop buffer (200 μL) was again added to the wells. The plates were then sealed and read on the TopCount scintillation counter.
For a series of test concentrations, the IC50 was derived by graphing percent inhibition against the log of the concentrations tested for a given compound.

[2] = tested on: Human epidermoid A431 carcinoma; experiment: In Vivo Models - Inhibition of Tumor Growth, A431; conditions: oral daily for 30 days, athymic mice
Description: (§9) In Vivo Models—Inhibition of Tumor Growth
(§10) The ability of test compounds to inhibit unregulated growth of human tumor cells in vivo was evaluated by implanting human tumor cells into the hindflank of athymic mice, administering a test compound and then quantifying any change in tumor size.
(§11) Human epidermoid A431 carcinoma, N87 cells and BT474 cells were implanted subcutaneously into the hindflank of female athymic mice (Charles River) and allowed to grow for 6-10 days. After a measurable tumor was established (as determined by baseline caliper measurement), the animal was administered an oral dose of the test compound daily for a period of 30 days. Tumor size was measured every five days and the degree of inhibition was determined by comparing drug-treated animals to vehicle-treated animals.
(§12) Variations of this method are intended to include intraperitoneal injection or intravenous infusion as the route of administration and administration of the test compound either alone or in a combination therapy.
(§13) The inhibition of tumor growth values are shown in Table 8 at various test concentrations, as indicated. For compounds with multiple values at one test concentration, each value represents a separate assay result.

N87 cells = experiment: In Vivo Models - Inhibition of Tumor Growth, N87; conditions: Mus musculus, po, 720 h, oral daily for 30 days, athymic mice, read-out: percent inhibition N87
Description: as §9, §10, §11, §12, §13

BT474 cells = experiment: In Vivo Models - Inhibition of Tumor Growth, BT474; conditions: 100 mg/kg, oral daily for 30 days, athymic mice
Description: as §9, §10, §11, §12, §13

T1 sequence (P00533 669-1210 limits assumed): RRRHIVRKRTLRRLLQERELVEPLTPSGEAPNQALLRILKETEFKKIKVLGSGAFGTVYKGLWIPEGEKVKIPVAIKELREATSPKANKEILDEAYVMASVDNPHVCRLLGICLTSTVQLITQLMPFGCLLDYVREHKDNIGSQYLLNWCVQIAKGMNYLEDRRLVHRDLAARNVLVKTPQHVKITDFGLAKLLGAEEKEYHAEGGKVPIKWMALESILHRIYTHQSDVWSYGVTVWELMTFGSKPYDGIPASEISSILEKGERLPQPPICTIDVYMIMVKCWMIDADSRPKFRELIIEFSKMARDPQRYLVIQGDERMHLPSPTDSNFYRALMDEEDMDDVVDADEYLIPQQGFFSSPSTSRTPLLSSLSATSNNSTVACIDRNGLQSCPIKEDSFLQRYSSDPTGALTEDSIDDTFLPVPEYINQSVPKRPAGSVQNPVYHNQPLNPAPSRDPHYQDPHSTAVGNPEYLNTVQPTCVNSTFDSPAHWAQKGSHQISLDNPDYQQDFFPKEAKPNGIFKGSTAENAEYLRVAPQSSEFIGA
T3 sequence (Q15303 676-1307): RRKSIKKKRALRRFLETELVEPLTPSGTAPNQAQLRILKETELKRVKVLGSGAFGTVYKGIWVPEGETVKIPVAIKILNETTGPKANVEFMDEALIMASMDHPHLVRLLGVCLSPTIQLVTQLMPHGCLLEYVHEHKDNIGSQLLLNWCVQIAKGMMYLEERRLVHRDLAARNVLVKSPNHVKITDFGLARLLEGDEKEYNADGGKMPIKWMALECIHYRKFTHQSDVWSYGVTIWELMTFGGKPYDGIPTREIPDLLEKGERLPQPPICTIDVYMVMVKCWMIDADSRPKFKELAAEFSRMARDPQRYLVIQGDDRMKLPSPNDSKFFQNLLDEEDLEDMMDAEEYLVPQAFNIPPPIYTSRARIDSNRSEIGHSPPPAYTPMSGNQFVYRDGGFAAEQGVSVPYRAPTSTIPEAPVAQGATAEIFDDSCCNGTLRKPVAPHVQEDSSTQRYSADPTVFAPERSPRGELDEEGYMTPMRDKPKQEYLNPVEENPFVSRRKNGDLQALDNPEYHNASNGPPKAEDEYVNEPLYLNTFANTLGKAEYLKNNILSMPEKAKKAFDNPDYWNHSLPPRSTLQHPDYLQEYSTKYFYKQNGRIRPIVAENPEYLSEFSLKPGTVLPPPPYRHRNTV
T2 sequence (P04626 679-1255): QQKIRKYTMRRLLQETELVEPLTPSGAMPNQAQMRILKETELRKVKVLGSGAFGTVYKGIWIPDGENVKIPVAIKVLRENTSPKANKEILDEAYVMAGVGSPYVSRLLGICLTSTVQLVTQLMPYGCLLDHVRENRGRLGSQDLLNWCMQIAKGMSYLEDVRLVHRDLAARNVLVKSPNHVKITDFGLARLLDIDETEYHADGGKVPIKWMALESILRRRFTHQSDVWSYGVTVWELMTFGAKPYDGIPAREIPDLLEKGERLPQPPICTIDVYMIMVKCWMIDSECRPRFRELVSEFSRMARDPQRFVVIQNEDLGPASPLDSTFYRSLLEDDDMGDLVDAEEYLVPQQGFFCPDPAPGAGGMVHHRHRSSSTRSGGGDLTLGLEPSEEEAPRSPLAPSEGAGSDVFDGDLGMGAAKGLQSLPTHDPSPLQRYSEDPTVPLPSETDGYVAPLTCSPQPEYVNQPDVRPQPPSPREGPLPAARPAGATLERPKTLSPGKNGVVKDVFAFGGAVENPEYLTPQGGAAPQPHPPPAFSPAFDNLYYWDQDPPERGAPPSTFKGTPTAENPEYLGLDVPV

## O=C(Nc1ccc(CN2CCCCC2)cc1)c1sc2ncnc3c2c1NC(=O)N3c1ccc(F)c(Cl)c1 [Cpd 3, 5-(3-chloro-4-fluoro-phenyl)-4-oxo-4,5-dihydro-3H-1-thia-3,5,6,8-tetraaza-acenaphthylene-2-carboxylic acid (4-piperidin-1-ylmethyl-phenyl)-amide]
EGFR
  IC50: 9 nM
HER-2
  inhibition at 1 µM: 59%
BT474 breast carcinoma
  IC50: 9580 nM
[1]
  IC50: 42600 nM
SKBR3 breast carcinoma
  IC50: 9720 nM

## COc1cc(NC(=O)c2sc3ncnc4c3c2NC(=O)N4c2cccc(Br)c2)ccc1OCCN1CCCCC1 [Cpd 63, 5-(3-bromo-phenyl)-4-oxo-4,5-dihydro-3H-1-thia-3,5,6,8-tetraaza-acenaphthylene-2-carboxylic acid [3-methoxy-4-(2-piperidin-1-yl-ethoxy)-phenyl]-amide]
EGFR
  IC50: 104 nM
HER-2
  inhibition at 1 µM: 45%
BT474 breast carcinoma
  IC50: ≥ 10000 nM
[1]
  IC50: 59000 nM
SKBR3 breast carcinoma
  IC50: 26900 nM

## O=C(Nc1ccc(CN2CCC(O)CC2)cc1)c1sc2ncnc3c2c1NC(=O)N3c1ccc(Oc2ccccc2)cc1 [Cpd 233, 4-oxo-5-(4-phenoxy-phenyl)-4,5-dihydro-3H-1-thia-3,5,6,8-tetraaza-acenaphthylene-2-carboxylic acid [4-(4-hydroxy-piperidin-1-ylmethyl)-phenyl]-amide]
EGFR
  IC50: 17 nM
HER-2
  IC50: 9 nM
HER-4
  IC50: 9 nM
[2]; 100 mg/kg
  percent inhibition A431: 2.2%
N87 cells
  inhibition in vivo at 100 mg/kg: 38.3%

## O=C(Nc1ccc(CN2CCCC(F)C2)cc1)c1sc2ncnc3c2c1NC(=O)N3c1ccc(Oc2ccccc2)cc1 (centres unmarked) [Cpd 234, 4-oxo-5-(4-phenoxy-phenyl)-4,5-dihydro-3H-1-thia-3,5,6,8-tetraaza-acenaphthylene-2-carboxylic acid [4-(3-fluoro-piperidin-1-ylmethyl)-phenyl]-amide]
EGFR
  IC50: 52 nM
HER-2
  IC50: 34 nM
HER-4
  IC50: 59 nM

## O=C(Nc1ccc(CN2CCOCC2)cc1)c1sc2ncnc3c2c1NC(=O)N3c1ccc(OCc2ccco2)c(Cl)c1 [Cpd 245, 5-[3-chloro-4-(furan-2-ylmethoxy)-phenyl]-4-oxo-4,5-dihydro-3H-1-thia-3,5,6,8-tetraaza-acenaphthylene-2-carboxylic acid (4-morpholin-4-ylmethyl-phenyl)-amide]
EGFR
  IC50: 24 nM
HER-2
  IC50: 48 nM
HER-4
  IC50: 227 nM
N87 cells
  inhibition in vivo at 100 mg/kg: 48.7%

## O=C(Nc1ccc(CN2CCC(F)CC2)cc1)c1sc2ncnc3c2c1NC(=O)N3c1ccc(Oc2ccccc2)cc1 [Cpd 250, 4-oxo-5-(4-phenoxy-phenyl)-4,5-dihydro-3H-1-thia-3,5,6,8-tetraaza-acenaphthylene-2-carboxylic acid [4-(4-fluoro-piperidin-1-ylmethyl)-phenyl]-amide]
EGFR
  IC50: 37 nM
HER-2
  IC50: 26 nM
HER-4
  IC50: 33 nM
N87 cells
  inhibition in vivo at 100 mg/kg: 68.9%

## COC1CCN(Cc2ccc(NC(=O)c3sc4ncnc5c4c3NC(=O)N5c3ccc(Oc4ccccc4)cc3)cc2)CC1 [Cpd 261, 4-oxo-5-(4-phenoxy-phenyl)-4,5-dihydro-3H-1-thia-3,5,6,8-tetraaza-acenaphthylene-2-carboxylic acid [4-(4-methoxy-piperidin-1-ylmethyl)-phenyl]-amide]
EGFR
  IC50: 18 nM
HER-2
  IC50: 11 nM
[2]; 10 mg/kg
  percent inhibition A431: 44%
[2]; 30 mg/kg
  percent inhibition A431: 54.1%
[2]; 100 mg/kg
  percent inhibition A431: 86.1% and 80.1%
N87 cells; 25 mg/kg
  inhibition in vivo at 25 mg/kg: 69.6%
N87 cells; 50 mg/kg
  inhibition in vivo at 50 mg/kg: 71%
N87 cells
  inhibition in vivo at 100 mg/kg: 75.4%
BT474 cells
  percent inhibition BT474: 98%
